Data on 1 molecule can be found in patent US7794987B2, “Method for treating central neuropathic pain” (UCB Pharma GmbH, priority 2003, dated 2010).

Assay [1] relates to spinally injured rats. Briefly: Single dose of SPM 927 on allodynia-like behaviours in spinally injured rats (von Frey hairs, brushing, cold). It counts as in vivo, Sprague-Dawley rats. The following applies: intraperitoneally. The protocol:
(§1) Male and female Sprague-Dawley rats (Möllegard, Denmark) weighing 200-250 g at the start of the experiments were used.
(§2) Ischemic spinal cord injury was produced in female rats according to methods described previously (Xu et al., 1992). In brief, the rats were anesthetized with chloral hydrate (300 mg/kg, i.p.) and a midline incision was made on the skin overlying vertebral segments T12-L1. The animals were positioned beneath an argon laser beam and irradiated for 10 min with the beam directed towards vertebral segment T12 or T13 (spinal segments L3-5). Immediately prior to and 5 min after the start of the irradiation, erythrosin B (Red No 3, Aldrich-Chemie, Steinheim, Germany) dissolved in 0.9% saline was injected intravenously through the tail vein at a dose of 32.5 mg/kg. A tunable argon ion laser (Innova model 70, Coherent Laser Product Division, Palo Alto, Calif.) operating at 514 nm was used. The average beam output power was 160 mW. The beam covered the entire width of the vertebra and the length of the beam was 1-2 mm. After irradiation, the wound was closed in layers and the rats were allowed to recover. The bladder was emptied manually for 1 week.
(§3) The vocalization threshold to graded mechanical touch/pressure stimuli were tested with von Frey hairs. During testing the rats were gently restrained in a standing position and the von Frey hair was pushed onto the skin until the filament became bent. The frequency of stimulation was about 1/s and at each intensity the stimulus was applied 5-10 times. The intensity of stimulation which induced consistent vocalization (>75% response rate) was considered as pain threshold.
(§4) The response of rats to brushing stimulation was tested with the blunt point of a pencil gently stroking the skin on the trunk in a rostro-caudal direction. The frequency of the stimulation was about 1/s and responses were graded with a score of 0=no observable response; 1=transient vocalization and moderate effort to avoid probe; 2=consistent vocalization and aversive reactions and 3=sustained and prolonged vocalization and aggressive behaviours.
(§5) Response to cold was tested with ethyl chloride spray applied to the shaved allodynic skin area. The response was graded with a score of 0=no observable response; 1=localized response (skin twitch and contraction), no vocalization; 2=transient vocalization, moderate struggle and 3=sustained vocalization and aggression.
(§6) SPM 927 was dissolved in physiological saline and injected intraperitoneally. The data for von Frey hairs, brushing and cold are expressed as median±median absolute deviation (M.A.D.) and analysed with Wilcoxon signed-ranks test or paired t-test.

Assay [2] has as its system spinally injured rats. Briefly: Repeated administration of SPM 927 in spinally injured rats (von Frey hairs, brushing, cold). It counts as in vivo, Sprague-Dawley rats. The following applies: 20 mg/kg twice a day. The procedure:
as §1, §2, §3, §4, §5, §6
The animals were injected with 20 mg/kg SPM 927 twice a day. The pre-drug response and the response 1 h after injection were assessed in the morning session. […] The normalization of basal sensitivity lasted at least 8 days without signs of tolerance.

Structures are written as SMILES.

On to `COC[C@@H](NC(C)=O)C(=O)NCc1ccccc1` [SPM 927, (R)-2-acetamide-N-benzyl-3-methoxypropionamide], for which the “effect on mechanical and cold allodynia” value in assay [1] (10 mg/kg) was “no effect”. For the same molecule, the “effect on mechanical and cold allodynia” value in assay [1] (15 mg/kg) was “partially alleviated mechanical and cold allodynia in the majority, but not all, rats”. In addition, the “effect on brushing and cold” value in assay [1] (15 mg/kg, FIG. 1B, C) was “significant effect”. In assay [1] (15 mg/kg, FIG. 1a), the “increase in threshold to stimulation with von Frey hairs” value is reported as “significant, but did not return to normal level”. Also, in assay [1] (20 mg/kg), the “duration of complete reversal of mechanical and cold allodynia” value is “about 2 h”; the “effect on mechanical and cold allodynia” value was “completely reversed mechanical and cold allodynia in all rats”. Moreover, the “vocalization threshold to von Frey hair stimulation 1 h after injection” value in assay [2] (days 1-3) is “increase in vocalization threshold”. Also, in assay [2] (discontinued after day 7), the “allodynia to stimulation with von Frey hairs and cold after discontinuation” value is recorded as “reappeared on day 9”; the “effect on brush stimulation after discontinuation” value is listed as “maintained up to day 11”. The “pre-drug response to von Frey hair stimulation” value in assay [2] (FIG. 2A) is on record as “normalized on day 4”. In assay [2] (FIG. 2B, 2C), the “baseline responses to brushing and cold” value is on record as “normalized from day 2 to day 6 respectively”. Moreover, the “duration of normalization of basal sensitivity” value in assay [2] (without signs of tolerance) was “at least 8 days”.
